# Experiments:
# C57B1/6 mice = experiment: Skin histology/thickness and gross dissection for white adipose tissue; type: in vivo, mouse
# Procedure: Six week-old control mice on a normal diet or treated with 2400 mg/kg/day NB-DNJ for four weeks (n=3 in each group), were sacrificed and hair removed by shaving followed by application of a depilatory cream. A small section of skin was excised from the same area of the back of each mouse and processed for histology. After excision, the skin was put into mini histology trays containing OCT compound (BDH Laboratory Supplies, UK) and frozen for cryo-sectioning. Cryosections (10 μm thickness) of skin were then fixed in ice-cold acetone for 30 sec and rinsed under running tap water for 1 minute before dipping briefly in Mayer's haemotoxylin (Sigma, UK). The sections were dehydrated through a rising ethanol concentration series of 70%, 80%, 95%, 100% before clearing with Histo-Clear Histological Clearing agent (National Diagnostics, […], Hull, UK) twice for 5 min. Finally, the sections of skin were mounted with cover slips and DePeX mounting medium (BDH Laboratory Supplies, UK) on glass microscope slides. Another portion of skin (5 mm^2) was taken from each mouse, placed on a microscope slide and skin thickness measured using a micrometer gauge. […] Also, after complete depilation, this group of mice had transparent skin making the visceral organs, ventrally, and the kidneys and spinal vertebrae, dorsally, clearly visible in contrast to the opaque, non-transparent skin of controls. […]
# male C57B1/6 mice = experiment: Epididymal fat pad weight, dose-response; type: in vivo, mouse
# Procedure: A dose-response relationship for the effect of increasing concentrations of NB-DNJ on adipose tissue in male C57B1/6 mice was determined by treating with doses ranging from 15 to 2400 mg/kg/day for 5 weeks. Mice were sacrificed and their epididymal fat pads excised and weighed. The results are expressed as a ratio of epididymal pad fat mass to total body weight.
# [1] = tested on: lean control and obese mice; experiment: Dietary intake in lean and obese mice (compound in diet or intraperitoneal injection); type: in vivo, mouse
# Procedure: Dietary intake of mice on powdered diets was measured on a daily basis, by pre-weighing diet put into the feeding hoppers then weighing remaining diet daily. Diet which the mice had spilt on the floor of the cage, was carefully recovered by sieving and incorporated into the measurements. In order to facilitate measurement of dietary intake, to exclude possible effects of the bitter taste of imino sugar in the diet and also inhibitory effects on disaccharidases in the gastrointestinal tract, groups of control and obese mice five weeks old were given daily intraperitoneal injections of NB-DNJ at a dose equivalent to 2400 mg/kg/day. A further group of obese mice was given daily intraperitoneal injections for two weeks from 10 weeks old. Control mice for each group were injected with an equal volume of isotonic saline vehicle. After assessment of dietary intake over five weeks in controls and three weeks in the obese mice, a restricted diet of 3.2 g/day for controls and 4.0 g/day for the obese mice was provided to compare with the effect of intraperitoneal injection. This equated to a 30% reduction in dietary provision for both groups of mice. […] Platt et al., J Biol Chem 272, 19365-72. This hypothesis was tested by measuring dietary intake in both lean and obese mice fed on both powdered chow with or without imino sugar and with pelleted diet. To exclude any effects of the bitter taste of imino sugars and also as a means to bypass any disaccharidase inhibition in the gut, lean control and obese mice were given daily intraperitoneal injections of NB-DNJ for five and three weeks respectively. Also, a group of obese mice had NB-DNJ mini-pumps implanted and, after four weeks, when the pumps were empty, were then given intraperitoneal injections daily. This delivery route has the advantage that it allows easy assessment of dietary intake, as the mice can eat pelleted diet.
# lean control mouse = experiment: Single intracerebroventricular (ICV) injection, food intake and weight change after 24 hours; type: in vivo
# Procedure: To investigate a central anorexigenic mechanism for weight loss in mice treated with NB-DNJ, single intracerebro-ventricular (ICV) injections were performed. The mice were assessed for food intake and weight change. Mice were anesthetized with isofluorane (4%) delivered by a vaporiser. Upon achievement of a surgical plane of anaesthesia, the animal was transferred to and secured in a Kopf small animal ultra precise stereotaxic instrument (David Kopf Instruments, Tujunga, Calif., USA) fitted with rat ear bars, mouse adaptor and mouse anaesthesia mask. A small amount of lignocaine local anaesthetic gel was applied to the ear bars to reduce any post-operative discomfort. For the remainder of the procedure, anaesthesia was maintained with 2.5% isofluorane. Lacrilube (Allergan Ltd, High Wycombe, UK) was applied to the mouse's eyes and a subcutaneous injection of the non-steroidal anti-inflammatory drug, Rimadyl (Pfizer, Sandwich, Kent, UK) was given for post-operative analgesia. For ICV injections, a small scalpel incision was made along the midline of the scalp from above the eyes to the occiput. A small hole was drilled in the skull, 1 mm lateral and 0.34 mm posterior to Bregma. 1 μl solution was slowly infused into the lateral ventricle at a depth of 2.25 mm, via a glass needle pipette pulled to a thickness of less than 100 microns at the tip. Mice were injected with 2 nmol compound (NB-DNJ, NB-DGJ or 2-deoxy glucose) in isotonic saline vehicle which was injected into controls. The incision was then closed using VetBond acrylic suture fluid (3M Animal Care Products, St Paul, Minn., USA). The whole procedure from induction of anaesthesia to full recovery lasted less than seven minutes. Mice were allowed free access to a pre-weighed quantity of RM1 pellet diet with water provided ad libitum. 24 hours following ICV injection the mice and remaining diet were weighed. To confirm a central anorectic effect of NB-DNJ, 2 nmol NB-DNJ, NB-DGJ and 2 deoxyglucose were injected directly into the lateral cerebral ventricle of lean control mouse brain (approximately 100 μM final cerebro-ventricular concentration). Mice injected with both saline vehicle and NB-DGJ ate a normal quantity of pellet diet in the following 24 hours (FIG. 9), approximately 5% less in this experiment than that seen in control mice in FIG. 7 (not statistically significant). In contrast, NB-DNJ-injected mice ate 20% less (p<0.02 for both saline and NB-DGJ) and 2-deoxy-glucose injections caused a 10% increase in feeding. 2-deoxy-glucose is a mild appetite stimulant in the short-term. Tsutsui et al., Physiol Behav 31, 493-502. In contrast, NB-DGJ had no effect, as expected.
smiles,measurement,setting,value
"CCCCN1C[C@H](O)[C@@H](O)[C@H](O)[C@H]1CO [NB-DNJ, N-butyldeoxynojirimycin]",white adipose tissue on gross dissection,C57B1/6 mice; 2400 mg/kg/day,significant depletion of white adipose tissue
same,reduction in mouse skin thickness,"C57B1/6 mice; 2400 mg/kg/day for four weeks, six week-old mice",40%
same,lowest dose at which a reduction in fat pad weight is apparent,"male C57B1/6 mice; 5 weeks treatment, doses 15 to 2400 mg/kg/day",15 mg/kg/day
same,epididymal fat pad mass to total body weight,"male C57B1/6 mice; five weeks treatment, 15 to 2400 mg/kg/day",clear dose-related response
same,reduction in food intake,"[1]; all groups of mice, pelleted or powdered diet, 2400 mg/kg/day equivalent",around 30%
same,eat less than age and sex-matched controls,"[1]; intraperitoneally injected mice, 2400 mg/kg/day equivalent",30%
same,ate less than untreated controls,[1]; lean and obese groups,up to one third less
same,ate less than saline- and NB-DGJ-injected mice,"lean control mouse; 2 nmol ICV, 24 hours",20%
same,weight change,"lean control mouse; 2 nmol ICV, 24 hours",significant weight loss
same,initial hyperphagic response,lean control mouse; first 24 hrs post icv injection,did not cause an initialhyperphagic response

# — patent publication US20060025449A1, “Use of N-substituted imino sugars for appetite suppression” (priority 2004, published 2006)
